Measurements from the NIST ThermoML archive (doi:10.1021/je300280s).
“And” between values parts separate entries of the source, which are not always exact repeats. Equal values may be shown once.

What was measured:
[1] = 101.33 kPa, Liquid, Vibrating tube method
[2] = xn = mol fraction of the nth substance listed; settings: 101.3 kPa, Liquid, Vibrating tube method
[3] = excess molar enthalpy (molar enthalpy of mixing); xn = mol fraction of the nth substance listed; settings: 101.3 kPa, Liquid, Flow calorimetry

CC(=O)C(C)=O [2,3-butanedione]
[1]
Settings	mass density [kg/m3]
288.15 K	998.09
293.15 K	991.78
298.15 K	985.5
303.15 K	979.18
308.15 K	972.83
313.15 K	966.48
318.15 K	960.08

CC/C=C\CCO [(Z)-3-hexen-1-ol]
[1]
Settings	mass density [kg/m3]
288.15 K	856.22
293.15 K	852.44
298.15 K	848.64
308.15 K	840.99
318.15 K	833.27

CC/C=C\CCO [(Z)-3-hexen-1-ol] + O
Settings	excess molar enthalpy, [3]	mass density, [2]
288.15 K, x1 = 0.000611	-0.00142 kcal/mol	998.763 kg/m3
288.15 K, x1 = 0.000916	-0.0021 kcal/mol	998.596 kg/m3
288.15 K, x1 = 0.001221	-0.00278 kcal/mol	998.432 kg/m3
288.15 K, x1 = 0.001526	-0.00344 kcal/mol	998.27 kg/m3
288.15 K, x1 = 0.001831	-0.0041 kcal/mol	998.106 kg/m3
288.15 K, x1 = 0.002135	-0.00473 kcal/mol	997.95 kg/m3
298.15 K, x1 = 0.00061	-0.000963 kcal/mol	996.68 kg/m3
298.15 K, x1 = 0.000915	-0.00143 kcal/mol	996.493 kg/m3
298.15 K, x1 = 0.00122	-0.00187 kcal/mol	996.319 kg/m3
298.15 K, x1 = 0.001524	-0.00231 kcal/mol	996.139 kg/m3
298.15 K, x1 = 0.001828	-0.00275 kcal/mol	995.963 kg/m3
298.15 K, x1 = 0.002132	-0.00316 kcal/mol	995.788 kg/m3
308.15 K, x1 = 0.000306	-0.00028 kcal/mol	993.834 kg/m3
308.15 K, x1 = 0.000611	-0.000528 kcal/mol	993.642 kg/m3
308.15 K, x1 = 0.000612	-0.000533 kcal/mol	993.637 kg/m3
308.15 K, x1 = 0.000916	-0.000786 kcal/mol	993.442 kg/m3
308.15 K, x1 = 0.000918	-0.000789 kcal/mol	993.441 kg/m3
308.15 K, x1 = 0.001221	-0.00102 kcal/mol	993.253 kg/m3
308.15 K, x1 = 0.001224	-0.00102 kcal/mol	993.253 kg/m3
308.15 K, x1 = 0.001526	-0.00125 kcal/mol	993.064 kg/m3
308.15 K, x1 = 0.001529	-0.00126 kcal/mol	993.059 kg/m3
308.15 K, x1 = 0.001831	–	992.912 kg/m3
308.15 K, x1 = 0.001835	-0.00146 kcal/mol	992.883 kg/m3
318.15 K, x1 = 0.000611	-0.000141 kcal/mol	989.794 kg/m3
318.15 K, x1 = 0.000612	-0.000139 kcal/mol	989.796 kg/m3
318.15 K, x1 = 0.000917	-0.000198 kcal/mol and -0.000194 kcal/mol	989.578 kg/m3 and 989.591 kg/m3
318.15 K, x1 = 0.001222	-0.000241 kcal/mol	989.38 kg/m3
318.15 K, x1 = 0.001223	-0.000239 kcal/mol	989.388 kg/m3
318.15 K, x1 = 0.001527	-0.00028 kcal/mol	989.183 kg/m3
318.15 K, x1 = 0.001528	-0.000284 kcal/mol	989.184 kg/m3
318.15 K, x1 = 0.001832	-0.000308 kcal/mol	988.988 kg/m3
318.15 K, x1 = 0.001833	-0.000311 kcal/mol	988.984 kg/m3
318.15 K, x1 = 0.002137	–	988.803 kg/m3 and 988.815 kg/m3

CCCC(=O)OC [methyl butanoate]
[1]
Settings	mass density [kg/m3]
288.15 K	903.34
293.15 K	897.88
298.15 K	892.38
303.15 K	886.86
308.15 K	881.3
313.15 K	875.74
318.15 K	870.14

CCCOC(C)=O [propyl ethanoate]
[1]
Settings	mass density [kg/m3]
288.15 K	893.2
298.15 K	882.05
308.15 K	870.87
318.15 K	859.52
